How the values were obtained:
GAVE1 (Homo sapiens) = assay: FLIPR assay, change in fluorescence of GAVE1 expressing CHO cells; assay type: cell-based; details: CHO cells expressing GAVE1, increasing amounts of ligand; untransformed CHO cells show control level
Description: To screen for agonists of human GAVE1, hGAVE1 is artificially coupled to a Gq signaling package. Activation of the Gq mechanism stimulates the release of Ca^2+ from sarcoplasmic reticulum vesicles within the cell. The Ca^2+ is released into the cytoplasm where it can be detected using Ca^2+ chelating dyes. A Fluorometric Imaging Plate Reader or FLIPR® apparatus (Molecular Devices) is used to monitor any resulting changes in fluorescence. The activity of an agonist is reflected by an increase in fluorescence.
CHO-K1 cells expressing hGAVE1 are pre-engineered to express an indiscriminate form of Gq protein (Gα16). […]
A compound library containing possible agonists will be tested at 10 μM concentration in physiological salt buffer. Changes in fluorescence are measured for 10 seconds prior to compound addition. After the addition of the compound, fluorescence is measured every second for the first minute followed by exposures taken every six seconds for a total experimental analysis time of three minutes. […] The maximum fluorescence changes for the first 80 scans is recorded as a measure of agonist activity and compared to the maximum fluorescence change induced by 10 μM ATP (Sigma A9062).

[1] = test system: GAVE1 expression in rat cardiac myocytes; assay: Northern blot of GAVE1 RNA levels in cardiomyocytes exposed to phenylephrine; assay type: cell-based; details: rat cardiac myocytes stimulated 48 hours with 10^-5 M phenylephrine; compared to control (untreated) or vehicle-treated myocytes
Description: FIG. 7 is a computer representation of a Northern blot depicting GAVE1 RNA levels of cardiomyocytes expressing GAVE1 exposed to medium, vehicle and vehicle containing phenylephrine.
Northern blot analysis is performed on RNA derived from several human tissue samples to determine whether the tissues express the hGAVE1 receptor gene. The probe used is P^32-labeled hGAVE1 cDNA.
P32-labeled hGAVE1 cDNA is prepared as follows. Twenty-five ng hGAVE1 cDNA prepared as described above is resuspended to 45 μl of 10 mM Tris-HCl, pH 7.5; 1 mM EDTA in a microfuge tube and heated at 95° C. for 5 minutes. The tube then is chilled on ice for another 5 minutes. Following chilling, the mixture contained in the tube is resuspended with the 45 μl GAVE1 cDNA and buffer as described above and mixed with RTS Rad Prime Mix (supplied with the RTS Rad Prime DNA-labeling System) (Life Technologies, Catalog No. 10387-017). Five μl of P^32-labeled α-dCTP, specific activity: 3000 Ci/mM, (Amersham, AA0005) is added while mixing gently but thoroughly. The resulting mixture is incubated at 37° C. for 10 minutes. Incubation is stopped by the addition of 5 μl of 0.2 M EDTA, pH 8.0. Incorporation of the radioactive alpha-dCTP into the hGAVE1 cDNA is evaluated by taking a 5 μl aliquot of the mixture and counting the radioactivity. […]

Sequence of GAVE1 (Homo sapiens) (P21453 whole entry): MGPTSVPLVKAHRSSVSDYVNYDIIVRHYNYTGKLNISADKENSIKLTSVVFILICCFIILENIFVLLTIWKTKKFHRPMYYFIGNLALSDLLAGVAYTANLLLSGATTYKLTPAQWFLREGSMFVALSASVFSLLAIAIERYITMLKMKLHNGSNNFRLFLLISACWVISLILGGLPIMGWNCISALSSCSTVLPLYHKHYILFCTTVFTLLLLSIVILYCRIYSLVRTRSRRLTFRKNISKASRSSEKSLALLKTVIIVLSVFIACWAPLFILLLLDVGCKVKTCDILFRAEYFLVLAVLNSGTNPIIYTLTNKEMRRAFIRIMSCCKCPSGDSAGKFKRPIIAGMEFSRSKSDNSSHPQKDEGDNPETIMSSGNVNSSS

CCCCCCCCCCCCC/C=C/[C@@H](O)[C@@H](N)COP(=O)(O)O [S1P, sphingosine-1-phosphate]
change in fluorescence (GAVE1 activity) (GAVE1 (Homo sapiens)): positive correlation of activity with increasing amounts of ligand

CNC[C@H](O)c1cccc(O)c1 [phenylephrine]
level of GAVE1 expression [1]: up-regulated several-fold

— patent US20030064434A1, “Novel G Protein-coupled receptor, GAVE1” (Aventis Pharmaceuticals, Inc., priority 2001, published 2003)
